Test results: patent US7932281B2, “Amine-based compound and use thereof” (Kureha Corporation, priority 2004, dated 2011)
pEC50: −log10 of the molar value.

Assays:
CXCR4 = target: T1, CXCR4 (Homo sapiens, UniProt P61073); assay: Inhibition of 125I-SDF-1α binding to receptors CXCR4 on MT-4 cells (Test Example 2); conditions: binding-inhibition % at 0.01 μM, 2 hours under ice-cooling, read-out: Inhibition rate (%)
T1 construct: endogenous in cells; host or cells: MT-4 cells
Method: MT-4 cells (5×10^6/0.2 ml/well) were cultured on a 24-well microtiter plate. After the cells were incubated for 24 hours at 37° C. in a carbon dioxide gas incubator, a culture medium was replaced with a buffer solution (0.1% BSA-containing RPMI-1640). Together with a ligand ^125I-SDF-1α (specific activity: 2,200 Ci/mmol; available from Daiichi Pure Chemicals Co., Ltd. (Tokyo)), test materials with various concentrations were subjected to a binding reaction for 2 hours under ice-cooling. […] Then, a rate of inhibition of the binding between radioactive ligands and receptors CXCR4 by a test material was calculated (a binding-inhibition % at 0.01 μM).

[1] = tested on: HIV-1IIIB infected MT-4 cells; assay: Anti-HIV activity, HIV-1IIIB infected MT-4 cells, MTT method (Test Example 1); format: cell-based; conditions: Human immunodeficiency virus 1, MT4, 120 h, concentration required for inhibition of cell disorder due to HIV infection by 50%, MOI 0.01, 5 days
Method: Immediately after infection, HIV-1IIIB infected MT-4 cells (3.0×10^4/well, MOI (Multiplicity of infection): 0.01) were added to a 96-well microtiter plate together with the test compounds having different concentrations. The cells were cultured in a carbon dioxide incubator at 37° C. for 5 days, and the number of living cells was measured in accordance with the MTT (tetrazolium) method ([…], et al., J. of Virol. Method, 20, 309-321 […]). The antiviral activity is represented by the concentration required for inhibition of cell disorder due to HIV infection by 50% (EC50: 50% Effective Concentration) (μM), and the results are shown in Table 2.

SD mice = assay: Acute toxicity, single transvenous administration (Test Example 3); format: in vivo; conditions: 6-week-old male SD mice, 2.5 mg/kg transvenously once in physiological saline
Method: The aforementioned compound was examined for acute toxicity. Specifically, 6-week-old SD mice (male) were divided into several groups (2 to 3 mice in each group). Subsequently, each of the compounds of Examples was dissolved in a physiological saline solution, and the solution was transvenously administered to the mice (dose: 2.5 mg/kg) once. Then, the number of dead mice was counted.

T1 sequence (P61073 whole entry): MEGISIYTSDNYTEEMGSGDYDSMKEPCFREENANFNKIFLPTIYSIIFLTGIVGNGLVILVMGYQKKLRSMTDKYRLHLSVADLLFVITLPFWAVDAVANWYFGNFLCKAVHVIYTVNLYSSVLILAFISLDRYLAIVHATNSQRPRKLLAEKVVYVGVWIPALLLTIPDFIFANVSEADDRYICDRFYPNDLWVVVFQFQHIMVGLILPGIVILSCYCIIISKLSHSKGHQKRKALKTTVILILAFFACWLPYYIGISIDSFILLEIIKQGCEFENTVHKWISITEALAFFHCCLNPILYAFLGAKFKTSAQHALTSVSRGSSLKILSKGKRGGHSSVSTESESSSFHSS

Compound | inhibition at 0.01 µM (CXCR4) [%] | pEC50 [1] | Dead mice/test mice (SD mice)
CCCN(CCC)CCCCN(CCO)Cc1ccc(CN(Cc2ncc[nH]2)Cc2nccn2C)cc1 [Compound No. 1, 2-[(4-dipropylamino-butyl)-(4-{[(1H-imidazol-2-ylmethyl)-(1-methyl-1H-imidazol-2-ylmethyl)-amino]-methyl}-benzyl)-amino]-ethanol] | 87.9 | 8.52 | 0/3
CCCN(CCC)CCCCc1nc2ccc(CN(Cc3ncc[nH]3)Cc3ncc[nH]3)cc2n1CCC [Compound No. 3, [4-(6-{[bis-(1H-imidazol-2-ylmethyl)-amino]-methyl}-1-propyl-1H-benzimidazol-2-yl)-butyl]-dipropyl-amine] | 71.4 | 8.52 | 0/3
CCCN(CCC)CCCCc1nc2ccc(CN(Cc3ncc[nH]3)Cc3nccn3C)cc2n1CCC [Compound No. 4, [4-(6-{[(1H-imidazol-2-ylmethyl)-(1-methyl-1H-imidazol-2-ylmethyl)-amino]-methyl}-1-propyl-1H-benzimidazol-2-yl)-butyl]-dipropyl-amine] | 94.9 | 8.52 | 0/3
CCCN(CCC)CCCCc1nc2cc(CN(Cc3ncc[nH]3)Cc3nccn3C)ccc2n1CCC [Compound No. 5, [4-(5-{[(1H-imidazol-2-ylmethyl)-(1-methyl-1H-imidazol-2-ylmethyl)-amino]-methyl}-1-propyl-1H-benzimidazol-2-yl)-butyl]-dipropyl-amine] | 67 | 8.05 | 0/3
CCCN(CCC)CCCCN(C)Cc1ccc(CNCc2nccn2Cc2nccn2C)cc1 [Compound No. 10] | 20.4 | 8.05 | 0/3
CCCN(CCC)CCCCc1nc2ccc(CN(Cc3ncc[nH]3)Cc3nccn3C)cc2n1C [Compound No. 13, [4-(6-{[(1H-imidazol-2-ylmethyl)-(1-methyl-1H-imidazol-2-ylmethyl)-amino]-methyl}-1-methyl-1H-benzimidazol-2-yl)-butyl]-dipropyl-amine] | 75.5 | 8.52 | 0/3
CCCN(CCC)CCCC1NC(=O)c2ccc(CN(Cc3ncc[nH]3)Cc3nccn3C)cc2NC1=O (stereo not shown) [Compound No. 14, 3-(3-dipropylaminopropyl)-8-{[(1H-imidazol-2-ylmethyl)-(1-methyl-1H-imidazol-2-ylmethyl)-amino]-methyl}-3,4-dihydro-1H-benzo[e][1,4]diazepin-2,5-dione] | 32.9 | 8.22 | 0/3
CCCN(CCC)Cc1ccc(NC(=O)c2ccc(CN(Cc3ncc(C)cc3C)Cc3nccn3C)cc2)cc1 [Compound No. 15, 4-{[(3,5-dimethyl-pyridin-2-ylmethyl)-(1-methyl-1H-imidazol-2-ylmethyl)-amino]-methyl}-N-(4-dipropylaminomethyl-phenyl)-benzamide] | 74 | 8.22 | 0/3
CCCN(CCC)Cc1ccc(NC(=O)c2ccc(CN(Cc3ccc(CC)cn3)Cc3nccn3C)cc2)cc1 [Compound No. 16, 4-{[(5-ethyl-pyridin-2-ylmethyl)-(1-methyl-1H-imidazol-2-ylmethyl)-amino]-methyl}-N-(4-dipropylaminomethyl-phenyl)-benzamide] | 46.9 | 8.52 | 0/3
CCCN(CCC)CCCCN1CCc2cc(CN(Cc3ncc[nH]3)Cc3nccn3C)ccc2C1 [Compound No. 17, [4-(6-{[(1H-imidazol-2-ylmethyl)-(1-methyl-1H-imidazol-2-ylmethyl)-amino]-methyl}-3,4-dihydro-1H-isoquinolin-2-yl)-butyl]-dipropyl-amine] | 93.5 | 8.52 | 0/3
CCCN(CCC)CCCCNC(=O)c1ccc(CN(Cc2ccc(C)cn2)Cc2nccn2C)cc1 [Compound No. 20, N-(4-dipropylamino-butyl)-4-{[(1-methyl-1H-imidazol-2-ylmethyl)-(5-methyl-pyridin-2-ylmethyl)-amino]-methyl}-benzamide] | 73.2 | 8.40 | 0/3
CCCN(CCC)CCCCN(Cc1ccc(CN(Cc2ncc[nH]2)Cc2nccn2C)cc1)S(C)(=O)=O [Compound No. 21, N-(4-dipropylamino-butyl)-N-(4-{[(1H-imidazol-2-ylmethyl)-(1-methyl-1H-imidazol-2-ylmethyl)-amino]-methyl}-benzyl)-methanesulfonamide] | 59.2 | 7.34 | 0/3
CCCN(CCC)CCCCN(Cc1ccc(CN(Cc2ncc[nH]2)Cc2nccn2C)cc1)S(=O)(=O)c1ccc(C)cc1 [Compound No. 22, N-(4-dipropylamino-butyl)-N-(4-{[(1H-imidazol-2-ylmethyl)-(1-methyl-1H-imidazol-2-ylmethyl)-amino]-methyl}-benzyl)-4-methyl-benzenesulfonamide] | 84.3 | 6.97 | 0/3
CCCN(CCC)CCCCN(CC)Cc1ccc(CN(Cc2ncc[nH]2)Cc2nccn2C)cc1 [Compound No. 23, N-ethyl-N-(4-{[(1H-imidazol-2-ylmethyl)-(1-methyl-1H-imidazol-2-ylmethyl)-amino]-methyl}-benzyl)-N′,N′-dipropyl-butane-1,4-diamine] | 78.2 | 8.52 | 0/3
CCCN(CCC)CCOCCN(C)Cc1ccc(CN(Cc2ncc[nH]2)Cc2nccn2C)cc1 [Compound No. 109, (2-{2-[(4-{[(1H-imidazol-2-ylmethyl)-(1-methyl-1H-imidazol-2-ylmethyl)-amino]-methyl}-benzyl)-methyl-amino]-ethoxy}-ethyl)-dipropyl-amine] | 94.3 | 8.40 | 
CCCN(CCC)CCCCN(Cc1ccc(CN(Cc2ncc[nH]2)Cc2nccn2C)cc1)Cc1nnn[nH]1 [Compound No. 110, N-(4-{[(1H-imidazol-2-ylmethyl)-(1-methyl-1H-imidazol-2-ylmethyl)-amino]-methyl}-benzyl)-N′,N′-dipropyl-N-(1H-tetrazol-5-ylmethyl)-butane-1,4-diamine] | 71.4 | 8.40 | 
CCCN(CCC)CCCCN(C)C(C(=O)OCC)c1ccc(CN(Cc2ncc[nH]2)Cc2nccn2C)cc1 (stereo not shown) [Compound No. 119, [(4-dipropylamino-butyl)-methyl-amino]-(4-{[(1H-imidazol-2-ylmethyl)-(1-methyl-1H-imidazol-2-ylmethyl)-amino]-methyl}-phenyl)-acetic acid ethyl ester] | 72.7 | 8.40 | 
CCCN(CCC)CCCCN(C)C(C(=O)O)c1ccc(CN(Cc2ncc[nH]2)Cc2nccn2C)cc1 (stereo not shown) [Compound No. 120, [(4-dipropylamino-butyl)-methyl-amino]-(4-{[(1H-imidazol-2-ylmethyl)-(1-methyl-1H-imidazol-2-ylmethyl)-amino]-methyl}-phenyl)-acetic acid] | 79.7 | 8.40 | 
CCCN(CCC)CCCCN(C)Cc1ccc(CN(Cc2ncc[nH]2)Cc2nccn2C)cc1C(=O)O [Compound No. 122, 2-{[(4-dipropylamino-butyl)-methyl-amino]-methyl}-5-{[(1H-imidazol-2-ylmethyl)-(1-methyl-1H-imidazol-2-ylmethyl)-amino]-methyl}-benzoic acid] | 71.3 | 8.40 | 
